The text below walks through data of patent US9096538B2, “Pharmaceutical comprising PPAR agonist” (Senju Pharmaceutical Co., Ltd., priority 2005, dated 2015).

For experiment [1], the system named is monkey meibomian gland epithelial cell. As to the kind of experiment: Test Example 3: increase in cell number, cultured monkey meibomian gland epithelial cell (Cell Counting Kit-8). The experiment is classed as cell-based, cynomolgus monkey. As to conditions: 48 + 48 hours; for Cell proliferation (%): no addition group = 100%, average ± standard deviation, N = 5. The procedure: A female cynomolgus monkey (Environmental Biological Life Science Research Center) was used. The experimental animal was used according to the International Guiding Principles for Biomedical Research Involving Animals.
A meibomian gland epithelial cell was prepared from a monkey eyelid. An eyelid was isolated, and stored in Dulbecco's phosphate buffered saline (D-PBS; Invitrogen), and this was transferred to a clean bench. The following cell preparation procedures were all performed sterilely.
After the isolated eyelid was immersed in 80% ethanol for 30 seconds, the eyelid was washed with D-PBS with 1% penicillin-streptomycin (Invitrogen) added thereto three times, and transferred to a minimum essential medium (MEM; Invitrogen). A fat tissue and a muscle tissue surrounding a meibomian gland tissue were removed under a stereomicroscope, and this was transferred to MEM containing 0.475 U/mL of collagenase A (Roche Diagnostics) and 2.4 U/mL of dispase II (Roche Diagnostics), and incubated at 37° C. overnight. After completion of incubation, the enzyme-treated tissue was placed again under the stereomicroscope, eyelashes and an eyelid connective tissue were removed, and a meibomian gland tissue was isolated. To the isolated gland tissue was added 1 mL of trypsin-EDTA (Invitrogen), and this was incubated at 37° C. for 5 minutes. After incubation, to this was added 9 mL of MEM containing 10% FBS to stop the enzymatic reaction, then, suction and exhaustion were repeated five times using a 10 mL pipette and, further, five times using an injection syringe equipped with a 21 G injection needle to disperse tissue-constituting cells. […] The cell suspension which had passed through the filter was recovered in a 50 mL centrifuge tube, and subjected to centrifugation at room temperature and 1,500 rpm for 5 minutes. To a cell layer containing an objective cell obtained by centrifugation was added 80 μL of D-PBS containing 0.5% bovine serum albumin (BSA; Sigma-Aldrich) to sufficiently suspend the cell, to this was added 20 μL of Anti-Fibroblast Microbeads (Militenyi Biotec), and this was allowed to stand at room temperature for 30 minutes. After completion of the reaction with an antibody, to this was added 2 mL of D-PBS containing 0.5% BSA, and this was subjected again to centrifugation at room temperature and 1,500 rpm for 5 minutes. To a cell layer containing an objective cell obtained by centrifugation was added 1 mL of D-PBS containing 0.5% BSA to sufficiently suspend the cell, and this was added dropwise to an LD column (Militenyi Biotec) equilibrated in advance using a column washing solution (D-PBS containing 2 mM EDTA (Dojindo Laboratories) and 0.5% BSA). Then, 2 mL of the column washing solution was added dropwise to the LD column. […] The cell recovered in the centrifuge tube was subjected again to centrifugation at room temperature and 1,500 rpm for 5 minutes to remove the supernatant. To this precipitation was added 1 mL of Defined Keratinocyte-Serum Free Medium (DK-SFM; Invitrogen) to suspend the cell and thereby, a meibomian gland epithelial cell suspension was prepared. The prepared cell was seeded on a culture dish (IWAKI) for cell culturing having a diameter of 3.5 cm which had been coated with a type I collagen solution (Nitta Gelatin Inc.) in advance, and to which 3 mL of DK-SFM had been added. The seeded cell was cultured in an incubator (SANYO) set at 37° C., 5% CO2, 95% air, and 100% humidity, and the culture medium was exchanged with a fresh culture medium every 48 hours until the test day.
Each test substance was dissolved in ethanol (Wako Pure Chemical Industries, Ltd.) to a 200-fold concentration of a final concentration in the culture medium, and this was stored at −80° C. until immediately before use.
As a culture dish for a cell proliferation promotion test, a 96-well culture dish for tissue culture (Corning) was used.
On the technique in general: Formazan colour is commonly taken as a measure of viable cells.

The test system is the same in experiment [2]. Put plainly: Test Example 8: increase in number of monkey meibomian gland epithelial cells (Cell Counting Kit-8). The format is cell-based. As to conditions: 3 x 48 hours; for Cell proliferation (%): no addition group = 100%, average ± standard deviation, N = 5. From the text: For studying the effect of promoting cell proliferation by each test substance, a culture medium prepared by removing the supplement attached to DK-SFM, from DK-SFM, was used as a basal medium, while as a positive control for confirming the cell proliferation promoting effect, a culture medium with the supplement added thereto (basal medium+supplement) was used according to instructions of an DK-SFM preparation protocol. […] In the test, a monkey meibomian gland epithelial cell which had been cultured to subconfluent, suspended in a cell banker (Nippon Zenyaku Kogyo Co., Ltd.), and cryopreserved in liquid nitrogen was used. The cell which had been cryopreserved was thawed, and transferred to a 50 mL centrifuge tube and a 10-fold amount of DK-SFM was added thereto. […] Each 64 μL of this cell suspension was dispensed into each well so that the cell number per bottom area (0.32 cm^2) of the collagen-treated 96-well culture dish for tissue culture became 4×10^4 cells/cm^2. […] After 48 hours from initial culture medium exchange, the culture medium was exchanged with a freshly prepared culture medium of each of [1] to [4]. Further, after 48 hours therefrom, the culture medium was exchanged again with a freshly prepared culture medium of each of [1] to [4].

With `CCCc1c(OCCCOc2ccc(OCC(=O)O)cc2)ccc(C(C)=O)c1O` [L-165041, (4-(3-(4-acetyl-3-hydroxy-2-propyl)phenoxy)propoxyphenoxy)acetic acid], the “Cell proliferation (%)” value in experiment [1] (10^−6 M) is recorded as 142.8 ± 5.4%; in experiment [1] (10^−7 M), 136.1 ± 4.7%; in experiment [2] (10^−6 M), 169.1 ± 19.6%; in experiment [2] (10^−7 M), 142.9 ± 22.3%. The “cell proliferation compared to the no addition group (in words)” value in experiment [1] (p<0.01 where significant) and in experiment [2] (10^−6 M) was “significantly higher than in the no addition group” in each case.
